The numbers were not newly measured in patent publication US20140082761A1, “METHODS TO INCREASE PLANT PRODUCTIVITY” (PLANT SENSORY SYSTEMS, LLC, priority 2011, published 2014), which cites them from elsewhere.

What is called Km is the concentration of substrate that gives half-maximal velocity.

Series [1] concerns the target T1, sulfinoalanine decarboxylase (SAD) (Rattus norvegicus, UniProt Q64611).
T1 construct: in vitro assays on SAD isolated from rat; host or cells: enzyme isolated from rat
T1 sequence (Q64611 1-493): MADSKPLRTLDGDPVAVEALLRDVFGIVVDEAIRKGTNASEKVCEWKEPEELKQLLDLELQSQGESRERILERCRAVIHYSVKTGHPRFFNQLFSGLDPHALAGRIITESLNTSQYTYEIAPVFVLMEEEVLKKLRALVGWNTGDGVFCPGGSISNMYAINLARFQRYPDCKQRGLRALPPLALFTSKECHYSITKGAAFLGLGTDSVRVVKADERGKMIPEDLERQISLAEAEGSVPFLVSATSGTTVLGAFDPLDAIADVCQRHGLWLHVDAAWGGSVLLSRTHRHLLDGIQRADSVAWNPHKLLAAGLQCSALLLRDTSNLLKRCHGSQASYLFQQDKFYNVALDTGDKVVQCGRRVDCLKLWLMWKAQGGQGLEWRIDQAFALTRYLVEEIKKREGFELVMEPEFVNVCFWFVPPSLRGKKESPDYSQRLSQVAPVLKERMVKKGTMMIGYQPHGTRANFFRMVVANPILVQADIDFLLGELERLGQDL
To be noted: substrate of SAD (decarboxylation); literature values.

Turning to `N[C@@H](CCC(=O)O)C(=O)O` [glutamate], the Km in series [1] is 2.9 mM.

Turning to `NCCS(=O)(=O)O` [taurine, 2-aminoethane sulfonic acid], the “effect of exogenous application on plant growth and production” value with plants (crop) is “increase crop harvest, yield, and biomass, increase seedling growth and increase photosynthetic capacity of isolated plant cells and chloroplasts”. Regarding `N[C@@H](CC(=O)O)C(=O)O` [aspartate], the Michaelis constant (Km) in series [1] was 11 mM.
